Values of other authors, collected in patent US20250144071A1, “METHOD FOR PRODUCING ELLAGIC ACID-CONTAINING COMPOSITION AND ELLAGIC ACID-CONTAINING COMPOSITION” (SUMITOMO CHEMICAL COMPANY, LIMITED, priority 2022, published 2025).

## O=c1oc2c(O)c(O)cc3c(=O)oc4c(O)c(O)cc1c4c23 [ellagic acid]
  Solubility of ellagic acid in water: about 20 μg/mL
